Legend:
Type in all cases: functional, cell-based
SGC-7901 = experiment: Antiproliferative activity against human SGC7901 cells after 72 hrs by sulforhodamine B assay; settings: SGC-7901, 72 h
HL-60 = experiment: Antiproliferative activity against human HL60 cells after 72 hrs by CCK8 assay; settings: HL-60, 72 h
A549 = experiment: Antiproliferative activity against human A549 cells after 72 hrs by sulforhodamine B assay; settings: A549, 72 h

Row | IC50 (SGC-7901) | IC50 (HL-60) | IC50 (A549) | Structure (SMILES)
1 | 31.7 µM | 45.5 µM | 26.2 µM | Cc1ccc2cc(C(C)C)c(O)cc2c1CC[C@@H]1OC(C)(C)OC1(C)C
2 | 36.7 µM | 17.2 µM | 28.9 µM | CC(=O)Oc1cc2c(CC[C@H]3OC(C)(C)OC3(C)C)c(C)ccc2cc1C(C)C
3 | 45.8 µM | 21.7 µM | 50.5 µM | CC(=O)Oc1cc2c(CC[C@H](O)C(C)(C)O)c(C)ccc2cc1C(C)C
4 | 88.9 µM | 16 µM | 68.5 µM | CC(=O)Oc1cc2c(CC[C@@H]3OC(C)(C)OC3(C)C)c(C)ccc2cc1C(C)C
5 | 34.4 µM | 20.8 µM | 25.5 µM | CC(=O)Oc1cc2c(CCC=C(C)C)c(C)ccc2cc1C(C)C
6 | 33.1 µM | 49.4 µM | 23.5 µM | Cc1ccc2cc(C(C)C)c(O)cc2c1CC[C@H]1OC(C)(C)OC1(C)C

The next lines start with the molecule.

Row | Structure (SMILES) | IC50 (SGC-7901) | IC50 (HL-60) | IC50 (A549)
7 | CC(=O)Oc1cc2c(CC[C@@H](O)C(C)(C)O)c(C)ccc2cc1C(C)C | 47.5 µM | 41.2 µM | 48.6 µM
8 | Cc1ccc(/C=C(\C(=O)O)C(C)C)c2c1CC[C@@H](C(C)(C)O)OC2=O | > 100 µM | > 100 µM | > 100 µM
9 | Cc1ccc(/C=C(\C(=O)O)C(C)C)c2c1CC[C@H](C(C)(C)O)OC2=O | > 100 µM | > 100 µM | > 100 µM
10 | CC(=O)Oc1cc2c(cc1C(C)C)C(=O)C=C1C(C)(C)CCCC12C (single isomer, unassigned) | 22.9 µM | 25.7 µM | 26.9 µM
11 | COc1cc2c(cc1C(C)C)C(=O)C=C1C(C)(C)CCCC12C (single isomer, unassigned) | > 100 µM | > 100 µM | > 100 µM

Reference: ChEMBL document CHEMBL4382251, “A Pair of Enantiomeric Bis- seco-abietane Diterpenoids from Cryptomeria fortunei” (J Nat Prod, 2018)
